Reference: patent publication US11191762B2, “Alkyl substituted triazole compounds as agonists of the APJ Receptor” (priority 2016, dated 2021)

These compounds were tested against human APJ receptor (Homo sapiens (Human), UniProt P35414) (assay: biochemical). Conditions: not given.
Sequence of human APJ receptor (P35414 whole entry): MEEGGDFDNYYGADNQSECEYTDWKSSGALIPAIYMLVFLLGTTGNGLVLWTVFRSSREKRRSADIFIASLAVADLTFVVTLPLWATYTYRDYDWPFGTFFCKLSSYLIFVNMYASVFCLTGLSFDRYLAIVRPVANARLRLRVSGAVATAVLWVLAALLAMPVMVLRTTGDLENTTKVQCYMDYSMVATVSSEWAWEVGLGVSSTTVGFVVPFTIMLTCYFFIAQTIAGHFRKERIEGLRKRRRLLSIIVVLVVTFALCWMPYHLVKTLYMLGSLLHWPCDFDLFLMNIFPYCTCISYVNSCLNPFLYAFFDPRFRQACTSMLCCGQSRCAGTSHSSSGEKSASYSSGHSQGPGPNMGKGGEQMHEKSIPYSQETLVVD
Format: biochemical
Summary of the method: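 [35S]GTPγS binding to membranes from CHO cells stably expressing human APJ, captured on WGA PS beads (5 μg/well). Buffer: 20 mM HEPES pH 7.5, 5 mM MgCl2, 100 mM NaCl, 0.1% BSA, with 3 μM GDP and 0.1 nM [35S]GTPγS final; compounds tested as 22-point 2-fold dilutions.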
[2H]C([2H])([2H])OCc1nnc(NS(=O)(=O)[C@@H](C)[C@H](OC)c2ncc(Cl)cn2)n1-c1c(OC)cccc1OC [Example 129.0, (1R,2S)-1-(5-chloro-2-pyrimidinyl)-N-(4-(2,6-dimethoxyphenyl)-5-(((˜2-H_3_)methyloxy)methyl)-4H-1,2,4-triazol-3-yl)-1-methoxy-2-propanesulfonamide] was tested, and the EC50 was 4.3 nM.

Same assay, conditions: [35S]GTPγS binding, membranes from CHO cells stably expressing human APJ receptor; read-out: Activity hAPJ SPA EC50 IP
With COCc1nnc(NS(=O)(=O)[C@@H](C)[C@H](C)c2cnc(OC)cn2)n1-c1c(OC)cccc1OC [Example 74.0, (2S,3R)-N-(4-(2,6-dimethoxyphenyl)-5-(methoxymethyl)-4H-l,2,4-triazol-3-yl)-3-(5-methoxypyrazin-2-yl)butane-2-sulfonamide] the EC50 was 16 nM.
Work on COc1ncnc(OC)c1-n1c(COC(C)C)nnc1NS(=O)(=O)[C@@H](C)[C@H](OC)c1ncc(Cl)cn1 [Example 79.0, (1R,2S)-1-(5-chloropyrimidin-2-yl)-N-(4-(4.6-dimethoxypyrimidin-5-yl)-5-(isopropoxymethyl)-4H-1,2,4-triazol-3-yl)-1-methoxypropane-2-sulfonamide] yielded an EC50 of 2.9 nM.
COc1ncnc(OC)c1-n1c(COC(C)C)nnc1NS(=O)(=O)[C@@H](C)[C@H](C)c1ncc(Cl)cn1 [Example 80.0, (2S,3R)-3-(5-chloropyrimidin-2-yl)-N-(4-(4,6-dimethoxypyrimidin-5-yl)-5-(isopropoxymethyl)-4H-1,2,4-triazol-3-yl)butane-2-sulfonamide] gave an EC50 of 2.4 nM.
COCc1nnc(NS(=O)(=O)[C@@H](C)[C@H](OC)c2ncc(Cl)cn2)n1C(COC)COC [Example 124.0, (1R,2S)-1-(5-Chloro-2-pyrimidinyl)-N-(4-(1,3-dimethoxy-2-propanyl)-5-(methoxymethyl)-4H-1,2,4-triazol-3-yl)-1-methoxy-2-propanesulfonamide] showed an EC50 of 85 nM.
COc1ncnc(OC)c1-n1c(COC(F)F)nnc1NS(=O)(=O)[C@@H](C)[C@H](C)c1ncc(Cl)cn1 [Example 127.0, (2S,3R)-3-(5-chloropyrimidin-2-yl)-N-(5-((difluoromethoxy)methyl)-4-(4,6-dimethoxypyrimidin-5-yl)-4H-1,2,4-triazol-3-yl)butane-2-sulfonamide] showed an EC50 of 38 nM.
With COc1ncnc(OC)c1-n1c(COC(F)F)nnc1NS(=O)(=O)[C@@H](C)[C@H](OC)c1ncc(Cl)cn1 [Example 128.0, (1R,2S)-1-(5-chloropyrimidin-2-yl)-N-(5-((difluoromethoxy)methyl)-4-(4,6-dimethoxypyrimidin-5-yl)-4H-1,2,4-triazol-3-yl)-1-methoxypropane-2-sulfonamide] the EC50 was 60 nM.
With COCc1nnc(NS(=O)(=O)[C@@H](C)[C@H](C)c2ncc(OC)cn2)n1-c1c(OC)cccc1OC [Example 130.0] the EC50 was 12 nM.
COCc1nnc(NS(=O)(=O)[C@@H](C)[C@H](OC)c2ncc(Cl)cn2)n1-c1c(F)cccc1F [Example 131.0] gave an EC50 of 20 nM.
COCc1nnc(NS(=O)(=O)[C@@H](C)[C@H](OC)c2ncc(Cl)cn2)n1-c1ccccc1OC [Example 132.0] was tested, and the EC50 was 11 nM.
COc1ncnc(OC)c1-n1c(NS(=O)(=O)[C@@H](C)[C@H](OC)c2ncc(Cl)cn2)nnc1C(C)C [Example 133.0, (1R,2S)-1-(5-chloro-2-pyrimidinyl)-N-(4-(4,6-dimethoxy-5-pyrimidinyl)-5-(2-propanyl)-4H-1,2,4-triazol-3-yl)-1-methoxy-2-propanesulfonamide] gave an EC50 of 22 nM.
In the case of COCc1nnc(NS(=O)(=O)[C@@H](C)[C@@H](OC(C)C)c2ncc(Cl)cn2)n1-c1c(OC)ncnc1OC [Example 134.0], the EC50 is reported as 12 nM.
COc1ncnc(OC)c1-n1c(COCC(F)(F)F)nnc1NS(=O)(=O)[C@@H](C)[C@H](OC)c1ncc(Cl)cn1 [Example 135.0, (1R,2S)-1-(5-chloro-2-pyrimidinyl)-N-(4-(4,6-dimethoxy-5-pyrimidinyl)-5-((2,2,2-trifluoroethoxy)methyl)-4H-1,2,4-triazol-3-yl)-1-methoxy-2-propanesulfonamide] showed an EC50 of 40 nM.
In the case of COc1cccc(OC)c1-n1c(NS(=O)(=O)[C@@H](C)[C@H](C)c2ncc(Cl)cn2)nnc1C(F)(F)c1ccccn1 [Example 136.0], the EC50 is reported as 35 nM.
In the case of COc1cccc(OC)c1-n1c(NS(=O)(=O)[C@@H](C)[C@H](C)c2ncc(C)cn2)nnc1C(F)(F)c1ccccn1 [Example 137.0], the EC50 is reported as 230 nM.
COc1ncnc(OC)c1-n1c(NS(=O)(=O)[C@@H](C)[C@H](O)c2ncc(C)cn2)nnc1C(C)(C)c1ccccc1 [Example 138.0] was tested, and the EC50 was 860 nM.
CO[C@H](c1ncc(Cl)cn1)[C@H](C)S(=O)(=O)Nc1nnc(CC(F)(F)F)n1C1CCOCC1 [Example 139.0] was tested, and the EC50 was > 4200 nM.
Work on COCc1nnc(NS(=O)(=O)[C@@H](C)[C@H](OC)c2ncc(Cl)cn2)n1C1(c2cccnc2)CC1 [Example 140.0, (1R,2S)-1-(5-chloropyrimidin-2-yl)-1-methoxy-N-(5-(methoxymethyl)-4-(1-(pyridin-3-yl)cyclopropyl)-4H-1,2,4-triazol-3-yl)propane-2-sulfonamide] yielded an EC50 of 29 nM.
In the case of COc1cccc(OC)c1-n1c(Cc2ccncc2)nnc1NS(=O)(=O)[C@@H](C)[C@H](C)c1ncc(Cl)cn1 [Example 141.0, (2S,3R)-3-(5-Chloro-2-pyrimidinyl)-N-(4-(2,6-dimethoxyphenyl)-5-(4-pyridinylmethyl)-4H-1,2,4-triazol-3-yl)-2-butanesulfonamide], the EC50 is reported as 100 nM.
Work on COCc1nnc(NS(=O)(=O)[C@@H](C)[C@H](OC)c2ncc(Cl)cn2)n1C(C)C [Example 144.0] yielded an EC50 of 1200 nM.
COCc1nnc(NS(=O)(=O)[C@@H](C)[C@H](OC)c2ncc(Cl)cn2)n1C1(COC)CC1 [Example 145.0] gave an EC50 of 240 nM.
Compound COCCc1nnc(NS(=O)(=O)[C@@H](C)[C@H](OC)c2ncc(Cl)cn2)n1C(COC)COC [Example 146.0] has an EC50 of 250 nM.
CCC(CC)n1c(COC)nnc1NS(=O)(=O)[C@@H](C)[C@H](OC)c1ncc(Cl)cn1 [Example 147.0] was tested, and the EC50 was 170 nM.

Same assay, conditions: read-out: Activity hAPJ SPA EC50 IP
COc1cccc(OC)c1-n1c(COC(C)C)nnc1NS(=O)(=O)[C@@H](C)[C@H](OC)c1ncc(Cl)cn1 [Example 69.0, (1R,2S)-1-(5-chloropyrimidin-2-yl)-N-(4-(2,6-dimethoxyphenyl)-5-(isopropoxymethyl)-4H-1,2,4-triazol-3-yl)-1-methoxypropane-2-sulfonamide] showed an EC50 of 1.2 nM.
Work on CCO[C@H](c1ncc(C)cn1)[C@H](C)S(=O)(=O)Nc1nnc(COC)n1-c1c(OC)cccc1OC [Example 73.0, (1R,2S)-N-(4-(2,6-dimethoxyphenyl)-5-(methoxymethyl)-4H-1,2,4-triazol-3-yl)-1-ethoxy-1-(5-methylpyrimidin-2-yl)propane-2-sulfonamide] yielded an EC50 of 37.5 nM.
COCc1nnc(NS(=O)(=O)[C@@H](C)[C@H](C)c2ccc(Cl)cn2)n1-c1c(OC)cccc1OC [Example 75.0, (2S,3R)-3-(5-chloropyridin-2-yl)-N-(4-(2,6-dimethoxyphenyl)-5-(methoxymethyl)-4H-1,2,4-triazol-3-yl)butane-2-sulfonamide] gave an EC50 of 3.1 nM.
For COCc1nnc(NS(=O)(=O)[C@@H](C)[C@H](OC)c2ccc(Cl)cn2)n1-c1c(OC)cccc1OC [Example 76.0, (1R,2S)-1-(5-chloropyridin-2-yl)-N-(4-(2,6-dimethoxyphenyl)-5-(methoxymethyl)-4H-1,2,4-triazol-3-yl)-1-methoxypropane-2-sulfonamide], the EC50 was 4.8 nM.
For COCCOCc1nnc(NS(=O)(=O)[C@@H](C)[C@H](C)c2ncc(Cl)cn2)n1-c1c(OC)cccc1OC [Example 151.0], the EC50 was 24 nM.
